BindingDB's records for doi:10.1016/j.bmcl.2015.05.100 (Eli Lilly, 2015)

Legend:
[1] = target: Cyclin-dependent kinase 4 (Homo sapiens, UniProt P11802); test: Inhibition of CDK4 (unknown origin) using GST-fused pRb (792 to 928) as substrate preincubated for 2 mins followed by [gamma-32P]-ATP addition measured after 15 mins by beta plate counting analysis
[2] = target: Cyclin-dependent kinase 2 (Homo sapiens, UniProt P24941); test: Inhibition of CDK2 (unknown origin) using GST-fused pRb (792 to 928) as substrate preincubated for 2 mins followed by [gamma-32P]-ATP addition measured after 15 mins by beta plate counting analysis

Cyclin-dependent kinase 4, sequence (P11802 whole entry, the tested form may be a part): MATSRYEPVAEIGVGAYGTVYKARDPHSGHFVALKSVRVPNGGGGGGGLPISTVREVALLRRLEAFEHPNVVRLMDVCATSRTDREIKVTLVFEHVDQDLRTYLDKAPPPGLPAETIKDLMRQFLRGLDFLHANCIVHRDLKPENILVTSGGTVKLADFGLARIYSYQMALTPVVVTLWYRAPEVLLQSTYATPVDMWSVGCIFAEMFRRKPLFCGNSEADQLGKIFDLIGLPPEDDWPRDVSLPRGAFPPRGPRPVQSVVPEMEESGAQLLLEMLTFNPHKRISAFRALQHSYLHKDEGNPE

`O=c1c(Br)cc2cnc(Nc3ccc(N4CCNCC4)cc3)nc2n1C1CCCC1` was tested, and the IC50 [1] was 2 nM and the IC50 [2] was 43 nM.
For `CC(=O)c1c(C)c2cnc(Nc3ccc(N4CCNCC4)cc3)nc2n(C2CCCC2)c1=O` [8-cyclopentyl-6-acetyl-5-methyl-2-{[4-(piperazin-1-yl)phenyl]amino}-7H,8H-pyrido[2,3-d]pyrimidin-7-one], the IC50 [1] was 2 nM.
Work on `Cc1c(Br)c(=O)n(C2CCCC2)c2nc(Nc3ccc(N4CCNCC4)cc3)ncc12` [6-bromo-8-cyclopentyl-5-methyl-2-{[4-(piperazin-1-yl)phenyl]amino}-7H,8H-pyrido[2,3-d]pyrimidin-7-one] yielded an IC50 [2] of 439 nM.
